From publication PMC11860776 (Viruses, 2025)
“Also recorded” adds a separate entry of the source. Read-outs that look alike come from different tables or passages of the source.

Experiments:
[1] = biological target: T1, mIMPα2ΔIBB:NS1 NLS interaction (Mus musculus, UniProt P52293); test: AlphaScreen inhibition assay of the IMPα:NS1-NLS interaction; type: binding
T1 construct: made in house; host or cells: bacteria

[2] = system: B19V; set-up: method as in earlier work; details: UT7/EpoS1 cells, IVM at 10 μM; cited from earlier work
[3] = system: B19V; test: Antiviral assay: B19V DNA replication by qPCR in UT7/EpoS1 cells; type: cell-based, Human parvovirus B19; details: for EC50: B19V DNA 48 hpi vs 2 hpi, table: mean (95% CI); for inhibition of viral replication: compounds at 10 μM, 48 hpi vs 2 hpi
[4] = system: B19V; test: Antiviral assay: B19V DNA replication by qPCR in EPCs; type: cell-based, Human parvovirus B19; details: B19V DNA 48 hpi vs 2 hpi, table: mean (95% CI)
[5] = system: UT7/EpoS1 cells; test: Cell cytotoxicity assay (alamarBlue HS) in UT7/EpoS1 cells; type: cell-based; details: for CC50: 6 h + 48 h with compound, alamarBlue, table: mean (95% CI)
[6] = system: EPCs; test: Cell cytotoxicity assay (WST-8, CCK-8) in EPCs; type: cell-based, human; details: for CC50: WST-8 based assay, TLTM: too low to measure; for cell toxicity: every concentration tested
[7] = titration 0-5 μM, average ± SD, 4 independent experiments, read-out: IC50

Molecule | IC50 [1, 7] [µM] | EC50 [3] [µM] | inhibition of viral replication [3] | CC50 [5] [µM] | other results
CC[C@H](C)[C@H]1O[C@]2(CC[C@@H]1C)C[C@@H]1C[C@@H](C/C=C(\C)[C@@H](O[C@H]3C[C@H](OC)[C@@H](O[C@H]4C[C@H](OC)[C@@H](O)[C@H](C)O4)[C@H](C)O3)[C@@H](C)/C=C/C=C3\CO[C@@H]4[C@H](O)C(C)=C[C@@H](C(=O)O1)[C@]34O)O2 [IVM, Ivermectin] | 0.0118 ± 0.004 | 7.6 | inhibited viral replication | 14.5 | AlphaScreen counts (mIMPα2ΔIBB:NS1 NLS interaction) ([1]; IVM 10 μM (text; figure legend says 2.5 μM) vs absence): significant reduction; inhibition of B19V viral replication [2]: could inhibit B19V viral replication; concentration from which strong inhibition of B19V DNA replication starts [3]: ≥ 6 µM; EC50 [4]: 3.3 µM; concentrations causing significative toxicity [5]: above 12.5 μM; CC50 [6]: TLTM; cell toxicity [6]: extremely toxic at every concentration tested
CC(Nc1nc(N2CCCC2)nc2ccccc12)c1ccccc1 (stereo not shown) [Importazole] |  | 13.4 | inhibited viral replication; also recorded: inhibited viral replication more than IVM | 30 | 
CO/N=C1\C[C@]2(C[C@@H]3C[C@@H](C/C=C(\C)C[C@@H](C)/C=C/C=C4\CO[C@@H]5[C@H](O)C(C)=C[C@@H](C(=O)O3)[C@]45O)O2)O[C@H](/C(C)=C/C(C)C)[C@H]1C [Moxidectin] | 0.0157 ± 0.0012 |  |  |  | 
CO[C@H]1C[C@H](O[C@@H]2/C(C)=C/C[C@@H]3C[C@@H](C[C@]4(CC[C@H](C)[C@@H](C5CCCCC5)O4)O3)OC(=O)[C@@H]3C=C(C)/C(=N/O)[C@H]4OC/C(=C\C=C\[C@@H]2C)[C@]43O)O[C@@H](C)[C@@H]1O [Selamectin] |  |  |  |  | IC50 [1]: 0.0508 ± 0.0029 µM
Avermectin B1 | 0.0361 ± 0.0177 | 9.8 | inhibited viral replication more than IVM |  | 
Emamectin benzoate [Emamectin benozate] | 0.0099 ± 0.003 |  |  |  | 
Eprinomectin | 0.0409 ± 0.0099 | 3.2 | inhibited viral replication more than IVM | 15.9 | EC50 [4]: 6.5 µM; CC50 [6]: TLTM; cell toxicity [6]: extremely toxic at every concentration tested
Milbemycin oxime | 0.0269 ± 0.0159 |  |  |  | 
